In patent US6762294B2, “Polynucleotides encoding polymorphic human GABAA receptor α-6 subunit” (The United States of America as represented by the …, priority 1999, dated 2004):
Like-named read-outs stand apart in the source and are kept apart here.

How the values were obtained:
[1] = tested on: children of alcoholics (COAs); test: Smooth pursuit eye movement task after intravenous diazepam; assay type: in vivo, human; conditions: COAs having the Pro385Ser allele relative to COAs having the Pro385 genotype
Experimental: Initially, the saccadic eye movement velocity and smooth pursuit eye movement gain was measured in the 56 COAs tested. Two baseline measurements for each variable were taken and averaged. The differences from this baseline were then evaluated at set time points after each of four diazepam doses. The data points were used to determine, by a trapezoidal technique, the integrated area under the resulting curve. The area under the curve for the dependent variable was then divided by the area under the curve for plasma diazepam levels to correct for individual variability in diazepam levels. The ratios of the areas under the curves for COAs with the Ser385 homozygous genotype and the Pro/Ser heterozygous genotype were then compared by t-test. […] For the G1031C genotype, a one-way ANOVA was used for assessing association.
COAs were tested on two days about one week apart. Intravenous catheters were inserted into antecubital veins in each of the subjects arms. One intravenous line was used for drawing blood while the other was used for administration of either diazepam or placebo. […]
On each testing day, responses were measured at 12 separate time points: twice at baseline, once after each of the four doses, and at each of six 30 minute intervals after the last dose for a period spanning three hours. Eye movements were evaluated at each time point. […]

[2] = tested on: sons of alcoholics and controls (men)
From the text: As part of a larger study, 41 men, were selected from among the first 113 completed 15-year follow-ups in a prospective study. […] Seventeen subjects whose low level of response to ethanol (LR) were in the lower third were compared on five polymorphisms of four genes with 24 men whose reactions to alcohol had been above the median.
For this pilot study, blood samples were taken from the first 41 appropriate consecutive men among the first 113 who completed 15-year follow-ups in an ongoing study. In order to identify subjects who were clearly low on LR, the men were selected to represent the two poles of LR. […] The alcohol challenges, evaluated changes from baseline for subjective feeling of intoxication, standing steadiness, and hormones after drinking 0.75 ml/kg of ethanol. (Schuckit and Gold, Arch Gen Psychiatry 45:211-216 (1986). The overall LR was evaluated as the change from baseline (pre-alcohol) to the time of peak blood alcohol concentration (BAC) (60 minute values) following alcohol consumption.

CN1C(=O)CN=C(c2ccccc2)c2cc(Cl)ccc21 [diazepam]
Sensitivity to diazepam (average smooth pursuit eye movement gain) [1]: reduced sensitivity

CCO [ethanol]
mean (±SD) LR ([2]; 0.75 ml/kg ethanol, 5-HT2A His452Tyr genotype His-His): −.44 | mean (±SD) LR ([2]; 0.75 ml/kg ethanol, 5-HT2A His452Tyr genotype His-Tyr): −.20 | mean (±SD) LR ([2]; 0.75 ml/kg ethanol, 5-HT2A T102C genotype CC): −.46 | mean (±SD) LR ([2]; 0.75 ml/kg ethanol, 5-HT2A T102C genotype TC): −.31 | mean (±SD) LR ([2]; 0.75 ml/kg ethanol, 5-HT2A T102C genotype TT): −.71 | mean (±SD) LR ([2]; 0.75 ml/kg ethanol, 5-HT2C Cys23Ser genotype Cys): −.39 | mean (±SD) LR ([2]; 0.75 ml/kg ethanol, 5-HT2C Cys23Ser genotype Ser): −.73 | mean (±SD) LR ([2]; 0.75 ml/kg ethanol, 5-HT Transporter genotype SL): −.30 | mean (±SD) LR ([2]; 0.75 ml/kg ethanol, 5-HT Transporter genotype SS): −.00 | mean (±SD) LR ([2]; 0.75 ml/kg ethanol, GABAA α6 genotype Pro/Pro): −.27 | mean (±SD) LR ([2]; 0.75 ml/kg ethanol, GABAA α6 genotype Pro/Ser): −1.01 | mean LR ([2]; 0.75 ml/kg ethanol, combined SL and SS 5-HTT genotype groups): 0.16±0.75 | proportion of subjects whose LR fell into the lowest third ([2]; 5-HTT genotype LL): 71.4% | proportion of subjects whose LR fell into the lowest third ([2]; 5-HTT genotype SL): 31.6% | proportion of subjects whose LR fell into the lowest third ([2]; 5-HTT genotype SS): 12.5% | LR at age 20 ([2]; LL/PP genotypes): −0.74±1.13 | proportion in the lowest third in response to alcohol ([2]; Pro385 homozygotes): 35.3% | LR at age 20 ([2]; SL/PP genotypes): −0.13±0.88 | LR at age 20 ([2]; SL/PS genotypes): 0.59±1.11 | LR at age 20 ([2]; SS/PP genotypes): 0.03±0.45 | LR at age 20 ([2]; combination of LL 5-HTT and Ser385 GABAA α6 genotypes): −1.29±0.53 | Sensitivity to ethanol ([2]; individuals with the Pro385Ser polymorphism compared with the wild-type polymorphism): reduced sensitivity | proportion in the lowest third in response to alcohol ([2]; those with Ser385 (Pro/Ser)): 71.4%
